pEC50: −log10 of the molar value.
Assays:
Human GPR120 short form = biological target: T1, Human GPR120 short form (Homo sapiens, UniProt Q5NUL3); test: Human GPR120 calcium flux assay, Procedure Calcium B (4200 cells/well); type: cell-based
T1 construct: expressed in transfected cells
T1 sequence (Q5NUL3 1-361): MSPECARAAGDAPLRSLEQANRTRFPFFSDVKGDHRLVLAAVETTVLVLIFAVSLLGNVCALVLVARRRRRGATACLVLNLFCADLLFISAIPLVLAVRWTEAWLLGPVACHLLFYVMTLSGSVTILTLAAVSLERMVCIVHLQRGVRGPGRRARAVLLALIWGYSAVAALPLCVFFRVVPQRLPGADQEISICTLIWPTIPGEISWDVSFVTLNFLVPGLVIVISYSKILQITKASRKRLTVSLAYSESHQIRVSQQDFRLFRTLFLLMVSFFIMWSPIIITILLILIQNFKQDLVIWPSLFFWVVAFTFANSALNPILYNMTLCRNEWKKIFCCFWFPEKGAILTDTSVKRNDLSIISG
Protocol: Human GPR120 in Calcium Flux Assay
These cells are first loaded with the Ca^+2 sensitive dye, Fluo-4 NW. Upon stimulation, intracellular released Ca^+2 can bind to the dye and alter its fluorescence intensity. This increase in fluorescence signal, and thus the flux in intracellular [Ca^2+], is detected and quantitated by fluorescence imaging using a FLIPR reader. The effect of the agonist is measured as a function of concentration and used to calculate an EC50 based upon a response curve.
In this procedure 4200 cells/well were employed.
A Human GPR120 clone (Genbank accession number NM_001195755.1) was placed into the pcDNA3.1 mammalian expression vector carrying the neomycin resistance gene. A stable mammalian cell was generated by placing the above clone into a HEK293 background. […] Cells were split 2 times a week to keep the cells in the log-phase growth. […]
The assay was performed on a FLIPR plate reader using the following parameters. Baseline was read for 10 seconds at 1 sec intervals. The program was set to transfer 10 μL of ligand from compound plate to cell plate after baseline reading. Aspiration was executed at: 10 μL/sec speed, 4.6 μL height, Dispensing was executed at: 30 μL/sec speed, 45 μL height. After compound addition, each well was read for 300 sec, with measurements collected at 1 sec intervals.
The kinetic data from the FLIPR was based upon a 5 minute window for data collection. The fluorescence of each sample well was used for individual calculations of a normalized RFU value, which was defined as maximum response minus the minimum response. The normalized fluorescence reading (RFU) was calculated as follows: RFU=Fmax−Fmin
The Fitting Equation was: Y=Bottom+(Top-Bottom)/(1+10^((Log EC50−X)*HillSlope)), where X is the log of the concentration and Y is the response.

human GPR40 = biological target: T2, human GPR40 (Homo sapiens, UniProt O14842); test: GPR40 calcium flux assay, human GPR40; type: cell-based; settings: HEK293 cells stably expressing GPR40; table does not say human or rat
T2 construct: expressed in transfected cells
T2 sequence (O14842 whole entry): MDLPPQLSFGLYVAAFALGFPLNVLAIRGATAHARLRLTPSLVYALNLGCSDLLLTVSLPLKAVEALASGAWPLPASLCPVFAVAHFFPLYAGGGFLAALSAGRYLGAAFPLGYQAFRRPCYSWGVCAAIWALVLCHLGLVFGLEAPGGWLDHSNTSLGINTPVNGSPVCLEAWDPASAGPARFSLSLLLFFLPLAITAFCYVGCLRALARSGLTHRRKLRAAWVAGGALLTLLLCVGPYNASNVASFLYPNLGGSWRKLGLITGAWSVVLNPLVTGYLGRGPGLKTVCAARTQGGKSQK
Protocol: Compounds were tested in a calcium flux assay using transfected HEK293 cells stably expressing either human GPR40 or rat GPR40. Human GPR40 expressing cells were cultured in DMEM−High Glucose media supplemented with 10% fetal bovine serum, 1×L-Glutamine, 1×Penicillin/Streptomycin and 500 μg/mL G418. Rat GPR40 expressing cells were cultured in DMEM−High Glucose media supplemented with 10% fetal bovine serum and 1 μg/mL puromycin. Cells were plated into poly-D-lysine coated 384-well plates and cultured overnight in a 37° C. humidified tissue culture incubator under 5% CO2/[…] atmosphere.
On the day of the experiment, the culture media was replaced with assay buffer (HBSS, 20 mM HEPES, 0.1% BSA) and the cells incubated at 37° C. for 1 h. Calcium-sensitive fluorescent dye (Fluo 8 No-Wash Calcium Dye, ABD Bioquest) was then added and the cells incubated for another 30 min at 37° C. followed by 15 min at room temperature while protected from the light. The cell plate and a plate of diluted compounds of Formula (I) were loaded into a fluorescent plate reader that added compounds onto the cells while measuring the fluorescence intensity of each well. The plate reader recorded fluorescence intensity at 1 second intervals for 8 min and provided the data for analysis in an Excel format. EC50 values were calculated using Prism (GraphPad) software.

## Cc1cc(CCC(=O)O)ccc1OCC1=C(c2ccco2)CCC1 [Compound 208, 3-[4-[[2-(2-furyl)cyclopenten-1-yl]methoxy]-3-methyl-phenyl]Propanoic Acid]
Human GPR120 short form
  pEC50: 6.73
Human GPR40
  pEC50: < 5.30

## O=C(O)CCc1cc(F)c(OCC2=C(c3ccco3)CCC2)c(F)c1 [Compound 209, 3-[3,5-difluoro-4-[[2-(2-furyl)cyclopenten-1-yl]methoxy]phenyl]Propanoic Acid]
Human GPR120 short form
  pEC50: 5.33
Human GPR40
  pEC50: < 5.30

## Cc1ccc(C2=C(COc3ccc(CCC(=O)O)cc3C)CCC2)o1 [Compound 211, 3-[3-methyl-4-[[2-(5-methyl-2-furyl)cyclopenten-1-yl]methoxy]phenyl]Propanoic Acid]
Human GPR120 short form
  pEC50: 6.52
Human GPR40
  pEC50: < 5.30

## Cc1ccc(C2=C(COc3c(F)cc(CCC(=O)O)cc3F)CCC2)o1 [Compound 212, 3-[3,5-difluoro-4-[[2-(5-methyl-2-furyl)cyclopenten-1-yl]methoxy]phenyl]Propanoic Acid]
Human GPR120 short form
  pEC50: < 5.30
Human GPR40
  pEC50: < 5.30

## Cc1ccc(C2=C(COc3ccc(CCC(=O)O)cc3)CCC2)c(O)c1 [Compound 213]
Human GPR120 short form
  pEC50: 6.11
Human GPR40
  pEC50: < 5.30

## COc1ccc(C2=C(COc3ccc(CCC(=O)O)cc3C)CCC2)cn1 [Compound 218, 3-[4-[[2-(6-methoxy-3-pyridyl)cyclopenten-1-yl]methoxy]-3-methyl-phenyl]Propanoic Acid]
Human GPR120 short form
  pEC50: 7.05
Human GPR40
  pEC50: < 5.30

## CCOc1ccc(C2=C(COc3ccc(CCC(=O)O)c(C)c3C)CCC2)cn1 [Compound 219, 3-[4-[[2-(6-ethoxy-3-pyridyl)cyclopenten-1-yl]methoxy]-2,3-dimethyl-phenyl]Propanoic Acid]
Human GPR120 short form
  pEC50: 5.95
Human GPR40
  pEC50: < 5.30

## COc1ccc(C2=C(COc3ccc(CCC(=O)O)c(C)c3C)CCC2)cn1 [Compound 220, 3-[4-[[2-(6-methoxy-3-pyridyl)cyclopenten-1-yl]methoxy]-2,3-dimethyl-phenyl]Propanoic Acid]
Human GPR120 short form
  pEC50: 6.80
Human GPR40
  pEC50: < 5.30

## COc1ccc(C2=C(COc3c(F)cc(CCC(=O)O)cc3F)CCC2)cn1 [Compound 221, 3-[3,5-difluoro-4-[[2-(6-methoxy-3-pyridyl)cyclopenten-1-yl]methoxy]phenyl]Propanoic Acid]
Human GPR120 short form
  pEC50: 6.80
Human GPR40
  pEC50: < 5.30

## Cc1cc(CCC(=O)O)cc(F)c1OCC1=C(c2ccc(F)cc2)CCC1 [Compound 227, 3-[3-fluoro-4-[[2-(4-fluorophenyl)cyclopenten-1-yl]methoxy]-5-methyl-phenyl]Propanoic Acid]
Human GPR120 short form
  pEC50: 6.45
Human GPR40
  pEC50: < 5.30

## Cc1cc(CCC(=O)O)cc(Cl)c1OCC1=C(c2ccc(F)cc2)CC(F)(F)C1 [Compound 229, 3-[3-chloro-4-[[4,4-difluoro-2-(4-fluorophenyl)cyclopenten-1-yl]methoxy]-5-methyl-phenyl]Propanoic Acid]
Human GPR120 short form
  pEC50: 5.98
Human GPR40
  pEC50: < 5.30

## O=C(O)CCc1ccc(OCC2=C(C3=CCCCC3)CCC2)cc1 [Compound 230, 3-[4-[[2-(cyclohexen-1-yl)cyclopenten-1-yl]methoxy]phenyl]Propanoic Acid]
Human GPR120 short form
  pEC50: 5.73
Human GPR40
  pEC50: < 5.30

## Cc1cc(CCC(=O)O)ccc1OCC1=C(c2ccco2)CC(F)(F)C1 [Compound 232, 3-[4-[[4,4-difluoro-2-(2-furyl)cyclopenten-1-yl]methoxy]-3-methyl-phenyl]Propanoic Acid]
Human GPR120 short form
  pEC50: < 5.30
Human GPR40
  pEC50: < 5.30

## CCCC#CC1=C(COc2ccc(CCC(=O)O)cc2)CCC1 [Compound 233]
Human GPR120 short form
  pEC50: 6.12
Human GPR40
  pEC50: 5.53

## Cc1ccc(C2=C(COc3ccc(CCC(=O)O)cc3)CCC2)cc1O [Compound 234]
Human GPR120 short form
  pEC50: 5.94
Human GPR40
  pEC50: < 5.30

## O=C(O)CCc1cc(Cl)c(OCC2=C(c3ccc(F)cc3)CCC2)c(Cl)c1 [Compound 235, 3-[3,5-dichloro-4-[[2-(4-fluorophenyl)cyclopenten-1-yl]methoxy]phenyl]Propanoic Acid]
Human GPR120 short form
  pEC50: 6.18
Human GPR40
  pEC50: < 5.30

## Cc1cc(CCC(=O)O)cc(Cl)c1OCC1=C(c2ccc(F)cc2)CCC1 [Compound 236, 3-[3-chloro-4-[[2-(4-fluorophenyl)cyclopenten-1-yl]methoxy]-5-methyl-phenyl]Propanoic Acid]
Human GPR120 short form
  pEC50: 5.90
Human GPR40
  pEC50: < 5.30

## N#Cc1cc(OCC2=C(c3ccc(F)cc3)CCC2)ccc1CCC(=O)O [Compound 237, 3-[2-cyano-4-[[2-(4-fluorophenyl)cyclopenten-1-yl]methoxy]phenyl]Propanoic Acid]
Human GPR120 short form
  pEC50: < 5.30
Human GPR40
  pEC50: 6.03

## Cc1cc(CCC(=O)O)ccc1OCC1=C(C2=CCOCC2)CCC1 [Compound 238, 3-[4-[[2-(3,6-dihydro-2H-pyran-4-yl)cyclopenten-1-yl]methoxy]-3-methyl-phenyl]Propanoic Acid]
Human GPR120 short form
  pEC50: 6.36
Human GPR40
  pEC50: < 5.30

## Cc1c(CCC(=O)O)ccc(OCC2=C(C3=CCOCC3)CCC2)c1C [Compound 239, 3-[4-[[2-(3,6-dihydro-2H-pyran-4-yl)cyclopenten-1-yl]methoxy]-2,3-dimethyl-phenyl]Propanoic Acid]
Human GPR120 short form
  pEC50: 6.39
Human GPR40
  pEC50: < 5.30

## O=C(O)CCc1ccc(OCC2=C(c3ccc(F)cc3)CCC2)cc1C(F)(F)F [Compound 240, 3-[4-[[2-(4-fluorophenyl)cyclopenten-1-yl]methoxy]-2-(trifluoromethyl)phenyl]Propanoic Acid]
Human GPR120 short form
  pEC50: 6.41
Human GPR40
  pEC50: 6.73

## O=C(O)CCc1ccc(OCC2=C(c3ccccc3)CC(F)(F)C2)cc1C(F)(F)F [Compound 241]
Human GPR120 short form
  pEC50: 6.76
Human GPR40
  pEC50: 6.65

## O=C(O)CCc1ccc(OCC2=C(c3ccccc3)CC(F)(F)C2)cc1Cl [Compound 242, 3-[2-chloro-4-[(4,4-difluoro-2-phenyl-cyclopenten-1-yl)methoxy]phenyl]Propanoic Acid]
Human GPR120 short form
  pEC50: 6.84
Human GPR40
  pEC50: 6.08

## Cc1cc(Cl)ccc1C1=C(COc2ccc(CCC(=O)O)c(C(F)(F)F)c2)CCC1 [Compound 243, 3-[4-[[2-(4-chloro-2-methyl-phenyl)cyclopenten-1-yl]methoxy]-2-(trifluoromethyl)phenyl]Propanoic Acid]
Human GPR120 short form
  pEC50: < 5.30
Human GPR40
  pEC50: 7.05

## Cc1ccc(C2=C(COc3cc(C)c(CCC(=O)O)cc3F)CCC2)c(C)c1 [Compound 244, 3-[4-[[2-(2,4-dimethylphenyl)cyclopenten-1-yl]methoxy]-5-fluoro-2-methyl-phenyl]Propanoic Acid]
Human GPR120 short form
  pEC50: 5.65
Human GPR40
  pEC50: 6.10

## Cc1ccc(C2=C(COc3ccc(CCC(=O)O)cc3)CCC2)c(C)c1 [Compound 245, 3-[4-[[2-(2,4-dimethylphenyl)cyclopenten-1-yl]methoxy]phenyl]Propanoic Acid]
Human GPR120 short form
  pEC50: 5.70
Human GPR40
  pEC50: 5.72

## Cc1ccc(C2=C(COc3ccc(CCC(=O)O)c(Cl)c3)CCC2)c(C)c1 [Compound 246, 3-[2-chloro-4-[[2-(2,4-dimethylphenyl)cyclopenten-1-yl]methoxy]phenyl]Propanoic Acid]
Human GPR120 short form
  pEC50: 5.50
Human GPR40
  pEC50: 6.45

## Cc1ccc(C2=C(COc3ccc(CCC(=O)O)c(C(F)(F)F)c3)CCC2)c(C)c1 [Compound 247, 3-[4-[[2-(2,4-dimethylphenyl)cyclopenten-1-yl]methoxy]-2-(trifluoromethyl)phenyl]Propanoic Acid]
Human GPR120 short form
  pEC50: 5.51
Human GPR40
  pEC50: 6.41
